Source: patent US20250340561A1, “QUINAZOLINE COMPOUND FOR INDUCING DEGRADATION OF G12D MUTANT KRAS PROTEIN” (Astellas Pharma Inc., priority 2021, published 2025)

Each compound was assayed against T1, KRAS G12D (Homo sapiens, UniProt P01116, G12D) (assay: Test Example 1-2: KRAS degradation action in AsPC-1, Cell ELISA). Settings: AsPC-1 cells, overnight treatment, corrected with β-actin, 0% = 10 μM Example No. 26 (Example No. 8 for Example Nos. 74 and 75).
T1 construct: host or cells: AsPC-1 human pancreatic cancer cells
Assay type: cell-based
Protocol: Test Example 1-2: Evaluation of KRAS Degradation Action on Human G12D Mutant KRAS-Positive Pancreatic Cancer Line AsPC-1
The KRAS degradation action of test compounds was evaluated by measuring the expression levels of KRAS G12D by Cell ELISA.
[…] As for the cell culture conditions, a RPMI 1640 medium containing 10% fetal bovine serum was used in the presence of 5% CO2 at 37° C. The next day, the test compounds (10 points having final concentrations in the range of 10 μM to 0.3 nM), the compound of Example No. 26 (Example No. 8 for Example Nos. 74 and 75) of a final concentration of 10 μM as a positive control and DMSO, which was the solvent for the test compounds, as a negative control were diluted 500-fold with a fresh medium and were added at 20 μL per well. The cells were cultured overnight.
The next day, the culture supernatant was removed, and 4% paraformaldehyde phosphate buffer (from FUJIFILM Wako Pure Chemical Corporation) was added at 20 μL per well. The plate was allowed to stand for 30 minutes at room temperature to thus immobilize the cells. Then, the supernatant was removed, and 0.1% Triton X-100 (from Amersham Biosciences)-containing PBS was added at 20 μL per well. After allowing to stand for 10 minutes at room temperature, the supernatant was removed. PBS was added at 25 μL per well, and the supernatant was removed to thus wash each well. The washing was performed twice in total. Next, the supernatant was removed, and 0.5% sodium dodecyl sulfate (SDS; from Invitrogen)-containing PBS was added at 20 μL per well. After allowing to stand at room temperature for 10 minutes, the supernatant was removed by centrifugation (using a centrifugal dehydrator machine, the supernatant was removed by the same method hereinafter). PBS was added at 25 μL per well, and the supernatant was removed to thus wash each well. The washing was performed twice in total. The supernatant was removed by centrifugation, and a blocking solution (Intercept Blocking Buffer) was added at 20 μL per well. After allowing to stand for 30 minutes at room temperature, the supernatant was removed by centrifugation, and a solution obtained by diluting an anti-Ras (G12D Mutant Specific) antibody and an anti-3-actin antibody 1,000-fold with a blocking solution was added at 20 μL per well as a primary antibody. The plate was allowed to stand overnight at 4° C.
The next day, the plate was centrifuged to remove the supernatant. PBS was added at […], and the supernatant was removed to thus wash each well. The washing was performed twice in total. The supernatant was removed by centrifugation, and a solution obtained by diluting Donkey anti-Mouse IgG H&L (TRDye 680RD) (from Li—COR Biosciences) and Goat anti-Rabbit IgG H&L (IRDye 800CW) (from Li—COR Biosciences) 1,000-fold with a blocking solution was added at 20 μL per well as a secondary antibody. After allowing to stand for 1 hour at room temperature, the supernatant was removed. PBS was added at 25 μL per well, and the supernatant was removed to thus wash each well. The washing was performed twice in total. After removing the supernatant by centrifuging the plate, the plate was dried as it was with air at room temperature for 2 hours or more, and the 700-nm and 800-nm fluorescent signals were measured with Aerius (from LI-COR Biosciences).
With the signaling value at the time of addition of DMSO corrected with the signaling value of β-actin taken as 100% and with the signaling value at the time of addition of 10 μM of the compound of Example No. 26 taken as 0%, the 50% degradation values (DC50) of the amounts of KRAS were calculated by Sigmoid-Emax model nonlinear regression analysis. The molecular weights of the test compounds were calculated as the molecular weights of the trihydrochloride for Example No. 30, the tetrahydrochloride for Example No. 46 and the free forms forming no salt for the remaining Example Nos. The results for some test compounds of the formula (I) are shown in Table 2.

T1 sequence (P01116 1-188 isoform P01116-2 G12D): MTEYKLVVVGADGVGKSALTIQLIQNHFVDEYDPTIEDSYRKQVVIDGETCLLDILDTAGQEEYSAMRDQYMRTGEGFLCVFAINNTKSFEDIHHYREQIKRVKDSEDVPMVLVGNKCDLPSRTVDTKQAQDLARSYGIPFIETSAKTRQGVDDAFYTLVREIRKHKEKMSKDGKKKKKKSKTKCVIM

| Compound | DC50 [nM] |
| --- | --- |
| CO[C@@H](C)[C@H](C)Oc1nc(N2C[C@@H]3C[C@H]2CN3)c2cc(C3CC3)c(-c3c(C)c(F)cc4[nH]ncc34)c(OCc3ccc(-c4cn([C@H](C(=O)N5C[C@H](O)C[C@H]5C(=O)N[C@@H](CO)c5ccc(-c6scnc6C)cc5)C(C)C)nn4)cc3)c2n1 [Example 41] | 9 |
| Cc1ncsc1-c1ccc([C@@H](CO)NC(=O)[C@@H]2C[C@@H](O)CN2C(=O)[C@H](C(C)C)n2cc(-c3ccc(COc4c(-c5c(C)c(F)cc6[nH]ncc56)c(C5CC5)cc5c(N6C[C@@H]7C[C@H]6CN7)nc(OC6CCOCC6)nc45)cc3)nn2)cc1 [Example 68] | 1390 |
| Cc1ncsc1-c1ccc([C@H](CO)NC(=O)[C@@H]2C[C@@H](O)CN2C(=O)[C@H](C(C)C)n2cc(-c3ccc(COc4c(-c5c(C)c(F)cc6[nH]ncc56)c(C5CC5)cc5c(N6C[C@@H]7C[C@H]6CN7)nc(O[C@H]6CCN(CCO)C6)nc45)cc3)nn2)cc1 [Example 31] | 138 |
| CO[C@H](C)[C@@H](C)Oc1nc(N2C[C@@H]3C[C@H]2CN3)c2cc(C3CC3)c(-c3c(C)c(F)cc4[nH]ncc34)c(OCc3ccc(-c4cn([C@H](C(=O)N5C[C@H](O)C[C@H]5C(=O)N[C@@H](CO)c5ccc(-c6scnc6C)cc5)C(C)C)nn4)cc3)c2n1 [Example 39] | 6 |
| Cc1ncsc1-c1ccc([C@H](CO)NC(=O)[C@@H]2C[C@@H](O)CN2C(=O)[C@H](C(C)C)n2cc(-c3ccc(COc4c(-c5c(C)c(F)cc6[nH]ncc56)c(C5CC5)cc5c(N6C[C@@H]7C[C@H]6CN7)nc(OC[C@H](C)N6CCOCC6)nc45)cc3)nn2)cc1 [Example 65] | 14 |
| Cc1ncsc1-c1ccc([C@H](CO)NC(=O)[C@@H]2C[C@@H](O)CN2C(=O)[C@H](C(C)C)n2cc(-c3ccc(COc4c(-c5c(C)c(F)cc6[nH]ncc56)c(C5CC5)cc5c(N6C[C@@H]7C[C@H]6CN7)nc(NCCO)nc45)cc3)nn2)cc1 [Example 66] | 250 |
| Cc1c(F)cc2[nH]ncc2c1-c1c(C2CC2)cc2c(N3C[C@@H]4C[C@H]3CN4)nc(OC3CCOCC3)nc2c1OCc1ccc(-c2cn([C@H](C(=O)N3C[C@H](O)C[C@H]3C(=O)N[C@@H](CO)c3ccc(-n4ccnc4C)cc3)C(C)C)nn2)cc1 [Example 69] | 31 |
| Cc1ncsc1-c1ccc([C@H](CO)NC(=O)[C@@H]2C[C@@H](O)CN2C(=O)[C@H](C(C)C)n2cc(-c3ccc(COc4c(-c5c(C)c(F)cc6[nH]ncc56)c(C5CC5)cc5c(N6C[C@@H]7C[C@H]6CN7)nc(OC6CCOCC6)nc45)cc3F)nn2)cc1 [Example 49, (4R)-1-[(2S)-2-(4-{4-[({6-cyclopropyl-4-[(1S,4S)-2,5-diazabicyclo[2.2.1]heptan-2-yl]-7-(6-fluoro-5-methyl-1H-indazol-4-yl)-2-[(oxan-4-yl)oxy]quinazolin-8-yl}oxy)methyl]-2-fluorophenyl}-1H-1,2,3-triazol-1-yl)-3-methylbutanoyl]-4-hydroxy-N-{(1R)-2-hydroxy-1-[4-(4-methyl-1,3-thiazol-5-yl)phenyl]ethyl}-L-prolinamide] | 15 |
| Cc1ncsc1-c1ccc([C@H](CO)NC(=O)[C@@H]2C[C@@H](O)CN2C(=O)[C@H](C(C)C)n2cc(-c3ccc(COc4c(-c5c(C)c(F)cc6[nH]ncc56)c(C5CC5)cc5c(N6C[C@@H]7C[C@H]6CN7)nc(OC[C@H](C)N6CCCC6)nc45)cc3)nn2)cc1 [Example 64] | 48 |
| CCn1nccc1-c1ccc([C@H](CO)NC(=O)[C@@H]2C[C@@H](O)CN2C(=O)[C@H](C(C)C)n2cc(-c3ccc(COc4c(-c5c(C)c(F)cc6[nH]ncc56)c(C5CC5)cc5c(N6C[C@@H]7C[C@H]6CN7)nc(OC[C@H](C)OC)nc45)cc3)nn2)cc1 [Example 70] | 14 |
| COCCN1CC[C@H](Oc2nc(N3C[C@@H]4C[C@H]3CN4)c3cc(C4CC4)c(-c4c(C)c(F)cc5[nH]ncc45)c(OCc4ccc(-c5cn([C@H](C(=O)N6C[C@H](O)C[C@H]6C(=O)N[C@@H](CO)c6ccc(-c7scnc7C)cc6)C(C)C)nn5)cc4)c3n2)C1 [Example 32] | 139 |
| Cc1c(F)cc2[nH]ncc2c1-c1c(C2CC2)cc2c(N3C[C@@H]4C[C@H]3CN4)nc(OC3CCOCC3)nc2c1OCc1ccc(-c2cn([C@H](C(=O)N3C[C@H](O)C[C@H]3C(=O)N[C@@H](CO)c3cccc(F)c3)C(C)C)nn2)cc1 [Example 63] | 70 |
| Cc1ncsc1-c1ccc([C@H](CO)NC(=O)[C@@H]2C[C@@H](O)CN2C(=O)[C@H](C(C)C)n2cc(-c3ccc(COc4c(-c5c(C)c(F)cc6[nH]ncc56)c(C5CC5)cc5c(N6C[C@@H]7C[C@H]6CN7)nc(O[C@@H]6CCN(CC(F)F)C6)nc45)cc3)nn2)cc1 [Example 34] | 24 |
| COC[C@H](C)Oc1nc(N2C[C@@H]3C[C@H]2CN3)c2cc(C3CC3)c(-c3c(C)c(F)cc4[nH]ncc34)c(OCc3ccc(-c4cn([C@H](C(=O)N5C[C@H](O)C[C@H]5C(=O)N[C@@H](CO)c5ccc(-c6scnc6C)cc5)C(C)C)nn4)cc3)c2n1 [Example 54] | 8 |
| Cc1ncsc1-c1ccc([C@H](CO)NC(=O)[C@@H]2C[C@@H](O)CN2C(=O)[C@H](C2CC2)n2cc(-c3ccc(COc4c(-c5c(C)c(F)cc6[nH]ncc56)c(C5CC5)cc5c(N6C[C@@H]7C[C@H]6CN7)nc(OC6CCOCC6)nc45)cc3)nn2)cc1 [Example 73] | 134 |
| CO[C@@H](C)COc1nc(N2C[C@@H]3C[C@H]2CN3)c2cc(C3CC3)c(-c3c(C)c(F)cc4[nH]ncc34)c(OCc3ccc(-c4cn([C@H](C(=O)N5C[C@H](O)C[C@H]5C(=O)N[C@@H](CO)c5ccc(-n6ccnc6C)cc5)C(C)C)nn4)cc3)c2n1 [Example 71] | 35 |
| Cc1ncsc1-c1ccc([C@H](CO)NC(=O)[C@@H]2C[C@@H](O)CN2C(=O)[C@H](C(C)C)n2cc(-c3ccc(COc4c(-c5c(C)c(F)cc6[nH]ncc56)c(C5CC5)cc5c(N6C[C@@H]7C[C@H]6CN7)nc(OC[C@H]6CCOC6)nc45)cc3)nn2)cc1 [Example 52] | 10 |
| Cc1ncsc1-c1ccc([C@H](CO)NC(=O)[C@@H]2C[C@@H](O)CN2C(=O)[C@H](C(C)C)n2cc(-c3ccc(COc4c(-c5c(C)c(F)cc6[nH]ncc56)c(C5CC5)cc5c(N6C[C@@H]7C[C@H]6CN7)nc(OC6CCOCC6)nc45)cc3)nn2)nc1 [Example 35] | 84 |
| Cc1c(F)cc2[nH]ncc2c1-c1c(C2CC2)cc2c(N3C[C@@H]4C[C@H]3CN4)nc(OC3CCOCC3)nc2c1OCc1ccc(-c2cn([C@H](C(=O)N3C[C@H](O)C[C@H]3C(=O)N[C@@H](CO)c3ccccc3F)C(C)C)nn2)cc1 [Example 30] | 157 |
